Experimental data reported in patent publication US7933647B2, “Methods of increasing lipolysis” (Transfert Plus, S.E.C., priority 2005, dated 2011).

Columns and labels:
adipocytes [1] = experiment: Adipocyte lipolysis measured by glycerol release from isolated adipocytes (Examples I-II); type: cell-based, human; conditions: isoproterenol 10^-4 M, 30 minutes
Protocol: Tissue samples. Adipose tissues were obtained from 11 pre-menopaused women, aged under 45, who were undergoing liposuction or an aesthetic surgery in the supra-iliac region. Adipocyte isolation. The adipose tissues were first placed in Krebs buffer and transported to the laboratory. Fragments of fresh adipose tissue were then incubated in a collagenase type II solution (reconstituted in Krebs buffer, 5 mg of collagenase per gm of tissue; Sigma) for 30 minutes at 37° C. under agitation (100 rpm) in a controlled atmosphere (95% O2, 5% CO2) (Rodbell, 1964). After the incubation period, the cellular suspension was filtered through a 250 μm nylon mesh and separated from the stromal and vascular fraction by flotation. […] Adipocytes were counted using a Neubauer hemacytometer using trypan blue dye. […] Because free fatty acids can be re-esterified Inside the adipocyte while glycerol is not, lipolysis was evaluated by measuring the release of glycerol. Glycerol was indirectly measured by assessing the formation of NADH produced during its enzymatic transformation. NADH was measured using a spectrophotometer (Pharmacia LKB-Novaspec), at a wavelength of 340 nm. Results are expressed as μmol of glycerol released per 10^6 adipocytes per 30 minutes. […] The mean and standard deviation were calculated.

adipocytes [2] = experiment: Adipocyte lipolysis in the biphasic electrical stimulation study, adipocytes from 4 women (Example III); type: cell-based, human; conditions: suprailiac adipocytes of 4 women aged 40-52; non significant level (FIG. 2)
Protocol: It was tested if biphasic electrical stimulation can induce lipolysis in adipocyte. 4 women between 40-52 years of age were used as subject. Adipose tissue was obtained from suprailiac areas through liposuction. It is disclosed that isoproterenol (ISO) increased adipocyte lipolysis by 15% i.e. at a non significant level (FIG. 2). […] Moreover, the 4 mA biphasic stimulation increased basal lipolysis by 1.8 x thus at a lower level than the 6 mA stimulation.

SMILES: CC(C)NCC(O)c1ccc(O)c(O)c1 (stereo not drawn) [isoproterenol]
- Increase of adipocyte lipolysis compared to control values (BASAL) (adipocytes [1]): 2.6 fold
- Mean glycerol released (lipolysis) (adipocytes [1]; 37° C., N=11 individuals, BASAL mean 1.4): 3.7 μM of glycerol
- Increase of adipocyte lipolysis (adipocytes [2]): 15%
